Assay in all cases: NCI anticancer screen, dose series, 48 h
The test system of test [1] is CCRF-CEM leukemia.
The subject of test [2] is DMS 114 small cell lung.
Test [3] deals with KM20L2 colon.
Test [4] relates to LOX IMVI melanoma.
Test [5] relates to NCI-H226 lung.
Test [6] has as its system OVCAR-8 ovarian.
Test [7] concerns SNB-78 CNS.
Test [8] relates to U251 CNS.
For test [9], the system named is SR leukemia.
The subject of test [10] is NCI/ADR-RES ovarian.

Where “and” joins values, the source holds several entries; their conditions need not be identical. Equal values may be shown once.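 Exposure lasted 48 hours, with cells grown in 96-well plates and compounds tested at five concentrations. At the GI50, growth is halved. TGI: concentration producing complete growth inhibition.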 Some results are limits rather than exact numbers.

Turning to `COC(=O)C1CCc2nnc(-c3ccccc3)n21` (stereo not drawn), the TGI in [1], in [2], in test [3], in test [4], in test [5] and in test [6] was over 100 µM throughout. For the same molecule, the TGI in test [7] and in [8] was over 100 µM in each case.
As for `COc1ccc2c(c1)CN1CCc3c(cc(OC)c(OC)c3OC)C1C2` (stereo not drawn), the TGI in test [1], in test [2], in test [3], in test [5], in test [6] and in test [7] was over 100 µM throughout. Moreover, the TGI in test [9] and in [8] was over 100 µM throughout.
Regarding `CCC[CH2][Sn]1([CH2]CCC)[S]CC[N]1S(=O)(=O)c1ccc(C)cc1`, the GI50 in test [2] was 0.659 µM; in test [3] it was 2.27 µM; in test [5], 2.03 µM; in [6], 1.63 µM; in test [8], 0.885 µM. The TGI in test [2] is 2.09 µM; in [3], 4.46 µM; in test [5], 3.45 µM; in test [6] it was 4.16 µM; in test [8], 2.1 µM.
Consider `CNC(=O)CN(CC(=O)O)C(=O)NC`, for which the TGI in [1], in test [4], in [6], in test [7], in test [9] and in test [8] was over 100 µM throughout.
As for `C[C@H]1C=C2C(=O)O[C@H]3CC[C@@H](C1)[C@@]23O`, the TGI in test [1] came out at 6.05 µM; in [2] it was 8.69 µM; in test [3], 16.2 µM; in test [4], 10.3 µM; in test [5], 29.3 µM; in test [6], 13.8 µM. Moreover, the TGI in [7] is 9.94 µM; in test [9] it was over 100 µM; in test [8], 19.5 µM.
For the molecule `CC[PH+](CC)CC.[Cl][Au]`, the GI50 is 0.216 µM in test [1]; 4.25 µM in [3]; 1.4 µM in test [4]; 4.49 µM in [5]; 2.19 µM in [6]; 1.65 µM in [7]. Also, the GI50 in test [8] is 1.95 µM. Besides, the TGI was 1.33 µM in test [1]; 8.73 µM in [3]; 2.91 µM in test [4]; 9.32 µM in [5]; 5.21 µM in test [6]; 5.93 µM in test [7]. Moreover, the TGI in test [8] is 5.14 µM.
For `COc1cc(/C=N/N=C(\N)NO)c([N+](=O)[O-])cc1OC`, the TGI in test [1] is over 100 µM; in test [2], 46.2 µM; in [3], over 100 µM; in test [4] it was 83.5 µM; in [5], 54.4 µM; in [6], over 100 µM. Moreover, the TGI in test [7], in [9] and in test [8] was over 100 µM throughout.
`CO[C@@]1(c2ccccc2)O[C@H]2OCCC2[C@H]1c1ccc(Cl)cc1` (stereo partly drawn): the TGI in [2] was over 100 µM; in [3], over 100 µM; in test [4] it was 77.4 µM; in [5], over 100 µM; in test [6] it was over 100 µM; in test [7], over 100 µM. Besides, the figures for the TGI in test [9] and in [8] were over 100 µM and 94 µM, respectively.
Consider `COc1cc(C(=O)c2cocc2C(=O)c2ccc3c(c2)OCO3)cc(OC)c1OC`, for which the TGI is over 51.6 µM in [1]; over 100 µM in test [2]; 30 µM in test [4]; 21.1 µM in [5]; 1.3 µM in test [10]; 30 µM in test [6]. For the same molecule, the TGI in test [9] was over 56.2 µM; in test [8] it was 8.35 µM.
Regarding `CC1=CCCC2C(C=O)(C1)CC(C)C2(CO)CC/C(=C/CO)CO` (stereo not drawn), the TGI in test [1], in test [2], in test [4], in test [5], in test [6] and in test [7] was over 100 µM each time. The molecule also came in with a TGI in test [8] of over 100 µM.
Take `CCCCN(CCCC)CC(C(C)=O)C(c1ccccc1)c1c(O)c2ccccc2oc1=O` (stereo not drawn): the TGI in test [1], in test [2], in test [3], in test [4], in test [5] and in test [6] was over 100 µM in each case. Also, the TGI in test [7], in test [9] and in [8] was over 100 µM each time.
Take `CC(=O)NN1C(=O)C(Cc2ccccc2)c2ccccc21` (stereo not drawn): the TGI in test [1], in test [2], in [3], in [4], in test [5] and in test [6] was over 100 µM each time. The TGI in test [7] and in test [8] was over 100 µM throughout.
For the molecule `COC(=O)N/N=C(\C)CC(=O)Nc1ccc(Cl)cc1`, the TGI in [1], in test [2], in test [3], in test [4], in [5] and in [6] was over 100 µM throughout. In addition, the TGI in test [7] and in [8] was over 100 µM each time.
With `O=C1NC2C(O)CCCCC2C12CCCCC2` (stereo not drawn), the TGI in [2], in test [4], in test [6], in test [7] and in test [8] was over 100 µM each time.
`CCC1=C(CC2NCCc3ccccc32)CC2c3cc(OC)c(OC)cc3CCN2C1` (stereo not drawn): the GI50 in test [1] is 3.81 µM; in [4], 4.4 µM; in [5] it was 4.7 µM; in test [10], 6.7 µM; in test [6] it was 3.93 µM; in test [9] it was 2.86 µM. Further, the GI50 in [8] is 4.8 µM. In addition, the TGI is 18.6 µM and 4.53 µM in [1]; 26.5 µM in test [3]; 15.5 µM and 5.68 µM in [4]; 37.4 µM and 4.74 µM in test [5]; 50.9 µM and 12.4 µM in test [10]; 26.5 µM and 19.2 µM in test [6]. Also, the TGI was 6.77 µM in test [7]; 8.77 µM and 3.89 µM in test [9]; 16.4 µM and 2.77 µM in [8].

Values taken from PubChem BioAssay (NCI).
